How the values were obtained:
[1] = target: T1, KRAS(G12C) (Homo sapiens, UniProt P01116, G12C); test: KRAS(G12C)/SOS1 homogeneous time-resolved fluorescence (HTRF) assay; design: purchased Cisbio 63ADK000CB16PEG; conditions: absence of GTP, 4° C. for 3 hr, read-out: KRAS (G12C) binding
How it was run: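 Three-hour incubation at 4 °C of 3-fold compound dilutions (lowest 1.02 nM) with KRAS(G12C), SOS1 and detection reagents, GTP absent. Disruption of the KRAS(G12C)/SOS1 complex detected by time-resolved fluorescence.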

[2] = target: T1, KRAS(G12C); test: KRAS(G12C) Western blot protein degradation assay in LU65A cells; type: cell-based; design: LU65A human lung cancer cell line, which expresses KRAS(G12C); host or cells: LU65A; conditions: 6 hr
Experimental: The following cancer cell lines were employed: BT-474 human breast carcinoma (ATCC, #HTB-20); MIA PaCa-2 human pancreatic carcinoma [2 copies KRAS(G12C)](ATCC, #CRL-1420); NCI-H23 human non-small cell lung cancer [1 copy KRAS(G12C)](ATCC, #CRL-5800); NCI-H358 human non-small cell lung cancer [1 copy KRAS(G12C)](ATCC, #CRL-5807); LU65A human lung carcinoma (Pharmaron, Beijing, China). Cell lines were cultured essentially according to ATCC and Pharmaron recommendations.
KRAS(G12C) Western Blot Protein Degradation Assay
The MIA PaCa-2 human pancreatic carcinoma cell line and LU65A human lung cancer cell line, which expresses KRAS(G12C), were seeded in 6- or 12-well tissue culture plates, and after 1 hr, test compounds were added at various concentrations and incubated at 37° C./5% CO2 for 48 hr (MIA Paca-2) and 6 hr (LU65A) respectively. Cells were then washed with cold PBS, aspirated and cold RIPA buffer containing a protease/phosphatase inhibitor cocktail was added to lyse cells. After centrifugation, the total protein concentrations of cell lysates were determined using the BCA protein assay. Samples were normalized for equivalent protein concentrations, 5×SDS-PAGE loading buffer added and denatured at 100° C. for 10 min. 20 μl of each sample/well was loaded on a SDS-PAGE gel and electrophoresed for 20 min at 80 V, then 120 V for 1.5 hr. Gels were then electroblotted to nitrocellulose membranes using a wet-transfer method at 250 mA for 2.5 hr. Membranes were incubated with blocking buffer for 1 hr and washed 3 times with TBST for 5 min. Membranes were then incubated with anti-KRAS (Sigma-Aldrich, #SAB1404011) and anti-β-Actin monoclonal antibodies (Cell Signaling Technology, #3700) diluted in blocking buffer at 4° C. overnight per the manufacturer's recommendations. After washing 3 times, blots were incubated with appropriately labeled secondary antibodies for 1 hr at room temperature and washed again. Fluorescence imaging and quantitation was performed using a LI-COR Odyssey. Results was analyzed using GraphPad Prism 7 software. Compound degradation of was determined by the following equation and DC50 values (the concentration at which 50% of the maximal degradation of KRAS occurs) calculated using GraphPad Prism 7 software:
% Inhibition=100−(D−B)/(S−B)*100%. • S: Fluorescence intensity of cells with antibody • D: Fluorescence intensity of compound-treated cells with antibody • B: Fluorescence intensity of cells without antibody

[3] = system: MIA PaCa-2 human pancreatic carcinoma; test: MIA PaCa-2 CCK-8 proliferation assay; type: cell-based; conditions: MIA PaCa-2 cells
How it was run: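 KRAS(G12C) lines were used: MIA PaCa-2 with 2 copies, and NCI-H358 and NCI-H23 with 1 copy each. Cells were treated with 3-fold compound dilutions from 20 μM to 1.02 nM, and proliferation was read by CCK-8 absorbance. % inhibition was calculated against DMSO-treated cells after subtracting the cell-free medium blank.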

T1 sequence (P01116 1-188 isoform P01116-2 G12C): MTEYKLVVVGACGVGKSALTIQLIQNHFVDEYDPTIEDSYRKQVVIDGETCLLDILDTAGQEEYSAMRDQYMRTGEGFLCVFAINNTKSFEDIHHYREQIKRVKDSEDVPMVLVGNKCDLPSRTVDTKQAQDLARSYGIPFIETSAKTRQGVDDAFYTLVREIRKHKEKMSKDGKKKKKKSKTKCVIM

Structure (SMILES)	IC50 [1]	DC50 [2]	EC50 ([3]; Homo sapiens, MIA PaCa-2, 72 h)	EC50 ([3]; 72 hr)
C=CC(=O)N1CCN(c2nc(OC[C@@H]3C[C@H](N4CCC5(CCN(Cc6ccc(-n7c(C(=O)NCC)nnc7-c7cc(C(C)C)c(O)cc7O)cc6)CC5)CC4)CN3C)nc3c2CCN(c2cccc4cccc(Cl)c24)C3)C[C@@H]1CC#N [Compound 259, 4-[4-({9-[(3S,5S)-5-({[7-(8-chloronaphthalen-1-yl)-4-[(3S)-3-(cyanomethyl)-4-(prop-2-enoyl)piperazin-1-yl]-5H,6H,8H-pyrido[3,4-d]pyrimidin-2-yl]oxy}methyl)-1-methylpyrrolidin-3-yl]-3,9-diazaspiro[5.5]undecan-3-yl}methyl)phenyl]-5-(2,4-di hydroxy-5-isopropylphenyl)-N-ethyl-1,2,4-triazole-3-carboxamide]	< 0.1 µM	< 0.1 µM	< 0.1 µM	–
C=CC(=O)N1CCN(c2nc(OC[C@@H]3CC[C@H](CN4CCN(Cc5ccc(-n6c(O)nnc6-c6cc(C(C)C)c(O)cc6O)cc5)CC4)N3C)nc3c2CCN(c2cccc(C)c2C)C3)C[C@@H]1CC#N [Compound 281, 2-[(2S)-4-(2-{[(2S,5R)-5-{[4-({4-[3-(2,4-dihydroxy-5-isopropylphenyl)-5-hydroxy-1,2,4-triazol-4-yl]phenyl}methyl)piperazin-1-yl]methyl}-1-methylpyrrolidin-2-yl]methoxy}-7-(2,3-dimethylphenyl)-5H,6H,8H-pyrido[3,4-d]pyrimidin-4-yl)-1-(prop-2-enoyl)piperazin-2-yl]acetonitrile]	< 0.1 µM	0.1 to 1 µM	0.1 to 1 µM	–
C=CC(=O)N1CCN(c2nc(OCCN3CCC(N4CCN(Cc5ccc(-n6c(O)nnc6-c6cc(C(C)C)c(O)cc6O)cc5)CC4)CC3)nc3c2CCN(c2cccc4cccc(Cl)c24)C3)C[C@@H]1CC#N [Compound 237, (S)-2-(1-acryloyl-4-(7-(8-chloronaphthalen-1-yl)-2-(2-(4-(4-(4-(3-(2,4-dihydroxy-5-isopropylphenyl)-5-hydroxy-4H-1,2,4-triazol-4-yl)benzyl)piperazin-1-yl)piperidin-1-yl)ethoxy)-5,6,7,8-tetrahydropyrido[3,4-d]pyrimidin-4-yl)piperazin-2-yl)acetonitrile]	0.1 to 1 µM	> 1 µM	0.1 to 1 µM	–
C=CC(=O)N1CCN(c2nc(OC[C@@H]3C[C@H](N4CCN(Cc5ccc(-n6c(O)nnc6-c6cc(C)c(O)cc6O)cc5)CC4)CN3C)nc3c2CCN(c2cccc4ccccc24)C3)C[C@@H]1CC#N [Compound 270, 2-[(2S)-4-(2-{[(2S,4S)-4-[4-({4-[3-(2,4-dihydroxy-5-methylphenyl)-5-hydroxy-1,2,4-triazol-4-yl]phenyl}methyl)piperazin-1-yl]-1-methylpyrrolidin-2-yl]methoxy}-7-(naphthalen-1-yl)-5H,6H,8H-pyrido[3,4-d]pyrimidin-4-yl)-1-(prop-2-enoyl)piperazin-2-yl]acetonitrile]	–	0.1 to 1 µM	> 1 µM	–
C=CC(=O)N1CCN(c2nc(OCCN3CCN(C(=O)C4CCN(Cc5ccc(-n6c(C(N)=O)nnc6-c6cc(C(C)C)c(O)cc6O)cc5)CC4)C[C@@H]3CN(C)C)nc3c2CCN(c2cccc4cccc(Cl)c24)C3)C[C@@H]1CC#N [Compound 260, 4-(4-((4-((S)-4-(2-((4-((S)-4-acryloyl-3-(cyanomethyl)piperazin-1-yl)-7-(8-chloronaphthalen-1-yl)-5,6,7,8-tetrahydropyrido[3,4-d]pyrimidin-2-yl)oxy)ethyl)-3-((dimethylamino)methyl)piperazine-1-carbonyl)piperidin-1-yl)methyl)phenyl)-5-(2,4-dihydroxy-5-isopropylphenyl)-4H-1,2,4-triazole-3-carboxamide]	–	> 1 µM	< 0.1 µM	–
C=CC(=O)N1CCN(c2nc(OC[C@@H]3CC[C@H](CN4CCN(Cc5ccc(-n6c(O)nnc6-c6cc(C(C)C)c(O)cc6O)cc5)CC4)N3C)nc3c2CCN(c2cccc4ccccc24)C3)C[C@@H]1CC#N [Compound 272, 2-[(2S)-4-(2-{[(2S,5R)-5-{[4-({4-[3-(2,4-dihydroxy-5-isopropylphenyl)-5-hydroxy-1,2,4-triazol-4-yl]phenyl}methyl)piperazin-1-yl]methyl}-1-methylpyrrolidin-2-yl]methoxy}-7-(naphthalen-1-yl)-5H,6H,8H-pyrido[3,4-d]pyrimidin-4-yl)-1-(prop-2-enoyl)piperazin-2-yl]acetonitrile]	–	< 0.1 µM	< 0.1 µM	–

Other lines, results leading:

IC50 [1]	DC50 [2]	EC50 ([3]; Homo sapiens, MIA PaCa-2, 72 h)	EC50 ([3]; 72 hr)	Structure (SMILES)
< 0.1 µM	> 1 µM	< 0.1 µM	–	C=CC(=O)N1CCN(c2nc(OC[C@@H]3CC[C@H](CN4CCN(C(=O)C5CCN(Cc6ccc(-n7c(C(=O)NCC)nnc7-c7cc(C(C)C)c(O)cc7O)cc6)CC5)CC4)N3C)nc3c2CCN(c2cccc4ccc(F)c(Cl)c24)C3)C[C@@H]1CC#N [Compound 269, 4-(4-{[4-(4-{[(2R,5S)-5-({[7-(8-chloro-7-fluoronaphthalen-1-yl)-4-[(3S)-3-(cyanomethyl)-4-(prop-2-enoyl)piperazin-1-yl]-5H,6H,8H-pyrido[3,4-d]pyrimidin-2-yl]oxy}methyl)-1-methylpyrrolidin-2-yl]methyl}piperazine-1-carbonyl)piperidin-1-yl]methyl}phenyl)-5-(2,4-dihydroxy-5-isopropylphenyl)-N-ethyl-1,2,4-triazole-3-carboxamide]
< 0.1 µM	0.1 to 1 µM	0.1 to 1 µM	–	C=CC(=O)N1CCN(c2nc(OC[C@@H]3CC[C@H](CN4CCN(C(=O)C5CCN(Cc6ccc(-n7c(O)nnc7-c7cc(C(C)C)c(O)cc7O)cc6)CC5)CC4)N3C)nc3c2CCN(c2cccc4ccccc24)C3)C[C@@H]1CC#N [Compound 255, 2-[(2S)-4-(2-{[(2S,5R)-5-({4-[1-({4-[3-(2,4-dihydroxy-5-isopropylphenyl)-5-hydroxy-1,2,4-triazol-4-yl]phenyl}methyl)piperidine-4-carbonyl]piperazin-1-yl}methyl)-1-methylpyrrolidin-2-yl]methoxy}-7-(naphthalen-1-yl)-5H,6H,8H-pyri-do[3,4-d]pyrimidin-4-yl)-1-(prop-2-enoyl)piperazin-2-yl] acetonitrile]
–	> 1 µM	–	> 1 µM	C=CC(=O)N1CCN(c2nc(OCCN3CCC(C(=O)N4CCN(Cc5ccc(-n6c(C(=O)NCC(F)(F)F)nnc6-c6cc(C)c(O)cc6O)cc5)CC4)CC3)nc3c2CCN(c2cccc4cccc(Cl)c24)C3)C[C@@H]1CC#N [Compound 254, (S)-4-(4-((4-(1-(2-((4-(4-acryloyl-3-(cyanomethyl)piperazin-1-yl)-7-(8-chloronaphthalen-1-yl)-5,6,7,8-tetrahydropyrido[3,4-d]pyrimidin-2-yl)oxy)ethyl)piperidine-4-carbonyl)piperazin-1-yl)methyl)phenyl)-5-(2,4-dihydroxy-5-methylphenyl)-N-(2,2,2-trifluoroethyl)-4H-1,2,4-triazole-3-carboxamide]
–	0.1 to 1 µM	0.1 to 1 µM	–	C=CC(=O)N1CCN(c2nc(OC[C@@H]3CC[C@H](CN4CCN(Cc5ccc(-n6c(O)nnc6-c6cc(C(C)C)c(O)cc6O)cc5)CC4)N3C)nc3c2CCN(c2cccc4cccc(C)c24)C3)C[C@@H]1CC#N [Compound 273, 2-[(2S)-4-(2-{[(2S,5R)-5-{[4-({4-[3-(2,4-dihydroxy-5-isopropylphenyl)-5-hydroxy-1,2,4-triazol-4-yl]phenyl}methyl)piperazin-1-yl]methyl}-1-methylpyrrolidin-2-yl]methoxy}-7-(8-methylnaphthalen-1-yl)-5H,6H,8H-pyrido[3,4-d]pyrimidin-4-yl)-1-(prop-2-enoyl)piperazin-2-yl]acetonitrile]
